Activity calls are given as the source filed them.
Columns and labels:
Cytochrome P450 2C19 = Cytochrome P450 2C19 (Homo sapiens, UniProt P33261); assay: Cytochrome panel assay with activity outcomes. Panel member name: p450-cyp2c19 Compounds with AC50 equal or less than 10 uM are considered active; format: functional
Cytochrome P450 3A4 = Cytochrome P450 3A4 (Homo sapiens, UniProt P08684);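 note: CYP3A4 tested as one member of a cytochrome P450 panel screen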
Cytochrome P450 2C9 = Cytochrome P450 2C9 (Homo sapiens, UniProt P11712)
Chain of Cytochrome P450 2C9 (P11712 whole entry): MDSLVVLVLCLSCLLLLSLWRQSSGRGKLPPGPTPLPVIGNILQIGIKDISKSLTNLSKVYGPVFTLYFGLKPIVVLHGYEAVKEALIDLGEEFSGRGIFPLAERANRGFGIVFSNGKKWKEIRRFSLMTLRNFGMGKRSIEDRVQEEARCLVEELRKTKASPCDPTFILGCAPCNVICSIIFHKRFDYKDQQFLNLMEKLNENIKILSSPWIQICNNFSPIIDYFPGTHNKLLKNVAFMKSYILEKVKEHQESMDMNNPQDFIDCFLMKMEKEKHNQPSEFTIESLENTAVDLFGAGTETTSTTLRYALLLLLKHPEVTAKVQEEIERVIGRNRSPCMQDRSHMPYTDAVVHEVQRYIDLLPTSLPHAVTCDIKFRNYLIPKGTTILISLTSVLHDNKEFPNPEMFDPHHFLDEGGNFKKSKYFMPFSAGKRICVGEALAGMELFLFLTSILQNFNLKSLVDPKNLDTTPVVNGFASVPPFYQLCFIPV

[1] = viability of uninfected HEp-2 cells – cell-based, HTS, cytotoxicity control for RSV inhibitor project, dose response (AID 2410); format: functional; conditions: human respiratory syncytial virus
[2] = molecular target: T1, Corticotropin-releasing factor receptor 2/Corticotropin-releasing factor-binding protein (Homo sapiens, UniProt P24387+Q13324); assay: activators of CRF receptor 2 with binding protein – uHTS hits, confirmation (AID 602473); format: functional; conditions: read-out: EC50_Mean
T1 sequence (Q13324 whole entry): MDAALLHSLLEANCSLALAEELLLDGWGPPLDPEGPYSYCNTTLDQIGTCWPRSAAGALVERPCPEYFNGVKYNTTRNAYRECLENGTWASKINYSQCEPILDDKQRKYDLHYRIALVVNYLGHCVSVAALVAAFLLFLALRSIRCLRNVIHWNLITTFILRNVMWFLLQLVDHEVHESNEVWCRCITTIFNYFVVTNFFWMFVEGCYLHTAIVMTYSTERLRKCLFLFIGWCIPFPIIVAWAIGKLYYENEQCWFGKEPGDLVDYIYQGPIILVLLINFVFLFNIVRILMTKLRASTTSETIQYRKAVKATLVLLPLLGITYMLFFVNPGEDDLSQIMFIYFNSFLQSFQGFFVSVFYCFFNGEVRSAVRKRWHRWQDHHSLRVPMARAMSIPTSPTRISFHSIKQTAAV
T1 sequence (P24387 whole entry): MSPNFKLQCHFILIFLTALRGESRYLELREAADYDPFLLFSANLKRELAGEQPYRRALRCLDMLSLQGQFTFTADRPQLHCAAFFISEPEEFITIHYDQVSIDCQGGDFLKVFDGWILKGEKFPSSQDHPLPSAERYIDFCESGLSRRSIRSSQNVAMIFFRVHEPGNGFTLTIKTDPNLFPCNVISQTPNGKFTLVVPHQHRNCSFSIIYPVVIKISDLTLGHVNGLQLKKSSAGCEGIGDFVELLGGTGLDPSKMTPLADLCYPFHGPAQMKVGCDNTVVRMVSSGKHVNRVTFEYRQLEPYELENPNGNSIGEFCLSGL

[3] = Luminescence Cell-Based Dose Confirmation HTS to Identify Activators of 5'UTR Stem-Loop Driven Alpha-Synuclein mRNA Translation in H4 Neuroglioblastoma Cells. [Related pubchem assays: 1829 (Project Summary), 1814 (Primary HTS)]; format: functional
[4] = Luminescence Cell-Based Dose Response HTS to Identify Activators of Luciferase Translation or Activity in H4 […] Cells. [Related pubchem assays: 1829 (Project Summary), 1814 (Primary HTS)]; format: functional
H4 = assay: Luminescence Cell-Based Dose Response HTS to Identify Activators of 5'UTR Stem-Loop Driven Prion Protein mRNA Translation in H4 Neuroglioblastoma Cells. [Related pubchem assays: 1829 (Project Summary), 1814 (Primary HTS)]; format: functional; conditions: Homo sapiens
[5] = luciferase reporter signal suppression in cells – H4 neuroglioma cells, luminescence, dose response (AID 1990); format: functional, cell-based
[6] = Luminescence Cell-Based Dose Response HTS to Identify Inhibitors of 5'UTR Stem-Loop Driven Prion Protein mRNA Translation in H4 Neuroglioblastoma Cells. [Related pubchem assays: 1827 (Project Summary), 1813 (Primary HTS)]; format: functional
[7] = alpha-synuclein stem-loop luciferase translation blockers – H4 neuroglioma cells, luminescence, confirmation (AID 1988); format: functional, cell-based
[8] = Trypanosoma cruzi growth suppression in host cells – NIH3T3 host cells, beta-gal luminescence, confirmation (AID 2044); format: functional, cell-based;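 note: intracellular parasites grown in NIH/3T3 mouse fibroblasts as host cells; luminescent beta-galactosidase reporter signal from transgenic T. cruzi replicating inside host cells; inhibitors lower the luminescence signal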
[9] = NIH3T3 cell viability loss – ATP luminescence, mouse fibroblasts, counter-screen, dose response (AID 2010); format: functional, cell-based;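 note: cells exposed to compound for about 90 hours before reading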
INS1 = assay: INS-1E survival protection against cytokine death – cell-based, luminescence, retest, dose response (AID 449756); format: functional; conditions: Rattus norvegicus;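 note: cell death triggered by IL-1 beta plus TNF-alpha plus IFN-gamma mixture; protective hits raise ATP signal compared with cytokine alone wells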

Chain of Cytochrome P450 2C19 (P33261 whole entry): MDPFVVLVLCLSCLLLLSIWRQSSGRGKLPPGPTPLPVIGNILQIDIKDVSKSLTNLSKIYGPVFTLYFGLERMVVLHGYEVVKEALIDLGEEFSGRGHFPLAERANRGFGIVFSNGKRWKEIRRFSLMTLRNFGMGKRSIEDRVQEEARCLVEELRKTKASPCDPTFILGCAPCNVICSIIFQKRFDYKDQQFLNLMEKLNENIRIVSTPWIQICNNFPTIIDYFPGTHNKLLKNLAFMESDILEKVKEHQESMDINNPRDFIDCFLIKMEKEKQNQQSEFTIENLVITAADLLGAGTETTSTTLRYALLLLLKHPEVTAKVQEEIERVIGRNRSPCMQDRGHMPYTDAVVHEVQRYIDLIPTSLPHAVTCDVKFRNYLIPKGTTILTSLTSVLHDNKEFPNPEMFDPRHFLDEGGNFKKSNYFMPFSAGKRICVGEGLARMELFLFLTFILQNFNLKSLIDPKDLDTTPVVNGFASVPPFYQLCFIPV
Chain of Cytochrome P450 3A4 (P08684 whole entry): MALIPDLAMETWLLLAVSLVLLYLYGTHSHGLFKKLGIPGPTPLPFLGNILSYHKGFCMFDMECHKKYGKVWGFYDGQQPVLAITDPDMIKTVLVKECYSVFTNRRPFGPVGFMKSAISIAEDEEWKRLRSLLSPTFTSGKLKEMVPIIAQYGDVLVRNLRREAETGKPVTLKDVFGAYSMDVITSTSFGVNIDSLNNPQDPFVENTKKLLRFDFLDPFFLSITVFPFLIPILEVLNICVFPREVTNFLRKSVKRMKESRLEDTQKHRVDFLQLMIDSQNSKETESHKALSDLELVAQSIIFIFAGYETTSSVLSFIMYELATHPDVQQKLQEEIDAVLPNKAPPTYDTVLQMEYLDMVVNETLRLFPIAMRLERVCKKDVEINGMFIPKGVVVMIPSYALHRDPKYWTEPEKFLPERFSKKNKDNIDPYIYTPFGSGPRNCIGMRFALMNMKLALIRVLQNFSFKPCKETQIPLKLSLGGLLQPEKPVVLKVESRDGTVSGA

Structure (SMILES): C[C@]1(C(=O)O)[C@@H]2CC[C@@H](O2)[C@@]1(C)C(=O)O
- AC50 (Cytochrome P450 2C19): inconclusive

Structure (SMILES): COc1ccc2[nH]c3c(NCCCN4CCCC4=O)ncnc3c2c1
- AC50 (Cytochrome P450 2C19; read-out: AC50): 39.8 µM (inconclusive)
- AC50 (Cytochrome P450 3A4): 17.8 µM (inconclusive)
- AC50 (Cytochrome P450 2C9): 3.98 µM (inconclusive)

Structure (SMILES): CC(C)NC(=O)c1c(O)c2cccc3c2n(c1=O)CCC3
- CC50 [1]: 17.3 µM (active)

Structure (SMILES): O=C(CCC1N=C2c3ccccc3N=C(SCc3ccc(Cl)cc3)N2C1=O)NCc1ccco1 (stereo unspecified)
- CC50 [1]: 25.4 µM (active)

Structure (SMILES): CCOc1ccc(NS(=O)(=O)c2ccc(C(=O)NCC3(N(C)C)CCCCC3)cc2)cc1
- EC50 [2]: 8.72 µM (active)

Structure (SMILES): CCCc1cc(O)nc(SCC(=O)c2cc(C)n(C3CC3)c2C)n1
- CC50 [1]: 43.1 µM (active)

Structure (SMILES): Cc1sc2ncnc(Sc3nc4ccccc4s3)c2c1C
- EC50 [3]: > 120 µM (not active)
- EC50 [4]: > 120 µM (not active)
- EC50 (H4): > 120 µM (not active)

Structure (SMILES): Clc1ccc2c(c1)C1OCCC1C(c1ccco1)N2 (stereo unspecified)
- CC50 [1]: 33.4 µM (active)

Structure (SMILES): O=C(CCN1C(=O)C2C3C=CC(C3)C2C1=O)N1CCN(c2cccc(Cl)c2)CC1 (stereo unspecified)
- AC50 (Cytochrome P450 2C19; read-out: AC50): 25.1 µM (inconclusive)
- AC50 (Cytochrome P450 2C9): 11.2 µM (inconclusive)

Structure (SMILES): COc1ccc(-c2nc3c4c(ncn3n2)-c2ccccc2CC42CCCC2)cc1
- EC50 [5]: 23 µM (active)
- EC50 [6]: > 120 µM (not active)
- EC50 [7]: 14.7 µM (active)

Structure (SMILES): N#Cc1cccc(Nc2c3c(nc4ccccc24)CCCC3)c1
- CC50 [1]: 15.9 µM (active)

Structure (SMILES): CCOc1ccc(S(=O)(=O)N2CCCCC2)c2ccccc12
- EC50 [5]: 20.9 µM (active)
- EC50 [6]: > 120 µM (not active)
- EC50 [7]: > 120 µM (not active)

Structure (SMILES): Cc1cc[n+](C(C)C(=O)c2ccc(-c3ccccc3)cc2)cc1 (stereo unspecified)
- EC50 [8]: 3.33 µM (active)
- EC50 [9]: > 60 µM (not active)
- AC50 (INS1): 4.05 µM (active)

Structure (SMILES): CSc1nc2ccccc2n1CC(=O)Nc1cc(C(F)(F)F)ccc1N1CCOCC1
- CC50 [1]: 42.4 µM (active)

Structure (SMILES): Cc1cccc(C(=O)NNC(=O)C(=O)NC(C)(C)C)c1
- AC50 (Cytochrome P450 2C19; read-out: AC50): 11.2 µM (inconclusive)

Structure (SMILES): CC(=O)C(C(C)=O)c1cc(NS(=O)(=O)c2ccccc2)ccc1NS(=O)(=O)c1ccccc1
- EC50 [2]: 9.35 µM (active)

Structure (SMILES): Cc1nnc(SCC(=O)NC(=O)Nc2ccc3c(c2)OCCO3)n1N
- EC50 [3]: 11.9 µM (active)
- EC50 [4]: 32.8 µM (active)
- EC50 (H4): > 120 µM (not active)

Structure (SMILES): O=C(Cn1cc(C(F)(F)F)cc(Cl)c1=O)NCc1ccccc1
- EC50 [3]: 84.7 µM (active)
- EC50 [4]: 31.6 µM (active)
- EC50 (H4): 18.5 µM (active)

Structure (SMILES): O=c1c(-c2ccc(Cl)cc2)cnc2n1CCS2
- EC50 [3]: 13 µM (active)
- EC50 [4]: 11.3 µM (active)
- EC50 (H4): 13.7 µM (active)

Structure (SMILES): O=C(CSc1ccc(Cl)cc1)Nc1ccc(N2CCN(c3ccccc3)CC2)c(F)c1
- AC50 (Cytochrome P450 2C19; read-out: AC50): 3.55 µM (inconclusive)

Structure (SMILES): CC1CN(CC(O)COC(c2ccc(Cl)cc2)c2ccc(Cl)cc2)CC(C)O1 (stereo unspecified)
- AC50 (INS1): 11.9 µM (active)

Structure (SMILES): Brc1ccccc1C1=Nn2c(nnc2-c2ccccc2)SC1
- EC50 [5]: 15.5 µM (active)
- EC50 [6]: > 120 µM (not active)
- EC50 [7]: 38.4 µM (active)
